Measured values from PubChem BioAssay AID651598 (Sanford-Burnham Center for Chemical Genomics, 2012).
Active and inactive are the calls of the source.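 How the source made its calls: active means CXCR6 IC50 under 10 µM and IC50 at the unrelated APJ receptor at least five times higher; inactive means the rest.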

Legend:
[1] = molecular target: Apelin receptor (Homo sapiens) (UniProt P35414); experiment: APJ beta-arrestin recruitment blockade alongside CXCR6 – cell-based, DiscoveRx, panel, CHO-K1, counter-screen for CXCR6 antagonist project, SAR follow-up (AID 651598); conditions: CHO-K1 PathHunter beta-arrestin luminescence, antagonist mode; APJ; mean of runs
[2] = molecular target: C-X-C chemokine receptor type 6 (Homo sapiens) (UniProt O00574); experiment: as above; conditions: CHO-K1 PathHunter beta-arrestin luminescence, antagonist mode; CXCR6; mean of runs
Sequence of C-X-C chemokine receptor type 6 (Homo sapiens) (O00574 whole entry, looked up): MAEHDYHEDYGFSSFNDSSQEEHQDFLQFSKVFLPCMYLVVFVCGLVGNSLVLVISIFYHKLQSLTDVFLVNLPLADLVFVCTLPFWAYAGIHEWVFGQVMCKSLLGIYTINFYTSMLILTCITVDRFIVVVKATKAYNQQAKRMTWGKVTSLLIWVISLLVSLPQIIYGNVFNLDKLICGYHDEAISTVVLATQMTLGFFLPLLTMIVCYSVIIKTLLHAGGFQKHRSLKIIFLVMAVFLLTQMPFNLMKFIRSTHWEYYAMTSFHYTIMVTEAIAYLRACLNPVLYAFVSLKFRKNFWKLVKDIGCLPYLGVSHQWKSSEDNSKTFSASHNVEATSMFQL

Sequence of Apelin receptor (Homo sapiens) (P35414 whole entry, looked up): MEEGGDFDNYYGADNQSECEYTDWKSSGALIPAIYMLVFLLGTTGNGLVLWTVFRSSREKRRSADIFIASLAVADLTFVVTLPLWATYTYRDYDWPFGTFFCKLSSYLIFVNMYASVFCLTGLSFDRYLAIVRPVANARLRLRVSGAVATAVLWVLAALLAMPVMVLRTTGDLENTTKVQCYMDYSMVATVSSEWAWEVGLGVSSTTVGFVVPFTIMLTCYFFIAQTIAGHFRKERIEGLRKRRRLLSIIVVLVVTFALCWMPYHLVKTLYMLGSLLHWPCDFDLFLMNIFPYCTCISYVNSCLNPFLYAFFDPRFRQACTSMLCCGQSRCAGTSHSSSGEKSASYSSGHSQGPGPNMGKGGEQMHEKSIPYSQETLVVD

IC50 [1] | IC50 [2] | Structure (SMILES)
> 80 µM (inactive) |  | COc1cc(C(=O)NC2CC3CCC(C2)N3CC(=O)Nc2ccccc2)cc(OC)c1OC (centres undefined)
> 80 µM (inactive) |  | COc1cc(C(=O)NC2CC3CCCC(C2)N3CC(=O)Nc2ccccc2)cc(OC)c1OC (centres undefined)
> 80 µM (inactive) | > 80 µM (inactive) | COc1cc(C(=O)NC2CCN(CC(=O)Nc3ccccc3)CC2)cc(OC)c1OC
